Reference: paper PMC6219668 (Oncotarget, 2018)
Read-outs that look alike come from different tables or passages of the source.

Tested on: panel of nearly 500 cancer cell lines
Assay: Cancer Cell Line Encyclopedia profiling, 3-day CellTiter-Glo
Type: cell-based
Conditions: read-out: IC50

Measured: IC50

CC(=O)c1c(C)c2cnc(Nc3ccc(N4CCNCC4)cn3)nc2n(C2CCCC2)c1=O [Palbociblib]
2.55 µM: lu99 (lung)
4.49 µM: ncih1944 (lung)
6.71 µM: ncih2444 (lung)
1.53 µM: ociaml2 (haematopoietic_and_lymphoid_tissue)
6.74 µM: mdamb415 (breast)
6.05 µM: ncih28 (pleura)
4.53 µM: ls513 (large_intestine)
4.75 µM: oe21 (oesophagus)
4.62 µM: mj (haematopoietic_and_lymphoid_tissue)
1.61 µM: nugc4 (stomach)
8 µM: mc116 (haematopoietic_and_lymphoid_tissue)
5.5 µM: msto211h (pleura)
1.4 µM: mino (haematopoietic_and_lymphoid_tissue)
2.04 µM: ncih1793 (lung)
> 8 µM: loximvi (skin) | ls123 (large_intestine) | ludlu1 (lung) | m059j (central_nervous_system) | malme3m (skin) | mcas (ovary) | mcf7 (breast) | mdamb157 (breast) | mdamb175vii (breast) | mdamb436 (breast) | mdamb453 (breast) | mdamb468 (breast) | meg01 (haematopoietic_and_lymphoid_tissue) | melho (skin) | messa (soft_tissue) | mfe280 (endometrium) | mg63 (bone) | miapaca2 (pancreas) | mkn7 (stomach) | mkn45 (stomach) | mkn74 (stomach) | moggccm (central_nervous_system) | mpp89 (pleura) | ncih23 (lung) | ncih211 (lung) | ncih226 (lung) | ncih322 (lung) | ncih358 (lung) | ncih441 (lung) | ncih520 (lung) | ncih522 (lung) | ncih647 (lung) | ncih650 (lung) | ncih661 (lung) | ncih727 (lung) | ncih747 (large_intestine) | ncih810 (lung) | ncih1048 (lung) | ncih1092 (lung) | ncih1184 (lung) | ncih1341 (lung) | ncih1355 (lung) | ncih1373 (lung) | ncih1563 (lung) | ncih1568 (lung) | ncih1573 (lung) | ncih1581 (lung) | ncih1648 (lung) | ncih1650 (lung) | ncih1651 (lung) | ncih1666 (lung) | ncih1693 (lung) | ncih1694 (lung) | ncih1792 (lung) | ncih1869 (lung) | ncih1915 (lung) | ncih1975 (lung) | ncih2009 (lung) | ncih2023 (lung) | ncih2030 (lung) | ncih2052 (pleura) | ncih2085 (lung) | ncih2087 (lung) | ncih2122 (lung) | ncih2170 (lung) | ncih2172 (lung) | ncih2228 (lung) | ncih2452 (pleura) | ncih3255 (lung) | ncin87 (stomach) | nihovcar3 (ovary) | nugc3 (stomach) | oc314 (ovary) | oc315 (ovary) | oc316 (ovary) | ocum1 (stomach) | oe33 (oesophagus) | oncodg1 (ovary) | ons76 (central_nervous_system) | ov90 (ovary)
